In general, GI50 refers to the concentration at which growth is held to half of that of the control. What is called IC50 is the concentration that gives 50% inhibition. For orientation: Cmax means the maximum level reached in the sampled fluid or tissue. Usually AUC(0-inf) stands for the area under the concentration-time curve extrapolated to infinity. As usually defined, the bioavailability is dose-corrected exposure relative to a reference, in per cent. The term Papp denotes a coefficient for how fast a substance crosses the barrier. Broadly, the Tmax is the time from dosing to the highest level. What is called AUC(0-t) is the area under the concentration-time curve up to a stated or last time point. The term half-life denotes how long it takes for the measured level to halve. What is called clearance is the rate of elimination divided by the concentration.

The results in this text go back to ChEMBL document CHEMBL1667837, “Structure and property based design, synthesis and biological evaluation of γ-lactam based HDAC inhibitors” (Bioorg Med Chem Lett, 2011).

SMILES strings stand for the structures.

The test system of data set [1] is MDA-MB-231. Put plainly: Cytotoxicity against human MDA-MB-231 cells. Type of data set: functional.
Data set [2] deals with LOX IMVI. Put plainly: Cytotoxicity against human LOXIMVI cells. Type of data set: functional.
Data set [3] has as its system NCI-H23. Put plainly: Cytotoxicity against human NCI-H23 cells. Type of data set: functional.
A short description of data set [4]: Inhibition of HDAC by fluorescence assay.
Data set [5] deals with PC-3. Put plainly: Cytotoxicity against human PC3 cells. Type of data set: functional.
The subject of data set [6] is HCT-15. Put plainly: Cytotoxicity against human HCT15 cells. Type of data set: functional.
The test system of data set [7] is ACHN. Put plainly: Cytotoxicity against human ACHN cells. Type of data set: functional.
Data set [8] in a line: Cmax in BALB/c mouse at 20 mg/kg, po. Type of data set: ADME, organism-based. As to conditions: in vivo. More on the design: dose 20 mg/kg, route oral.
Data set [9] in a line: AUC (0 to infinity) in BALB/c mouse at 5 mg/kg, iv. Type of data set: ADME, organism-based. More on the design: time infinity, dose 5 mg/kg, route intravenous. The settings on record: plasma.
The nature of data set [10]: Oral bioavailability in BALB/c mouse at 20 mg/kg. The settings on record: in vivo. Type of data set: ADME, organism-based.
In data set [11] the target is Histone deacetylase 3 (Homo sapiens, UniProt O15379).
Chain of Histone deacetylase 3 (O15379 whole entry): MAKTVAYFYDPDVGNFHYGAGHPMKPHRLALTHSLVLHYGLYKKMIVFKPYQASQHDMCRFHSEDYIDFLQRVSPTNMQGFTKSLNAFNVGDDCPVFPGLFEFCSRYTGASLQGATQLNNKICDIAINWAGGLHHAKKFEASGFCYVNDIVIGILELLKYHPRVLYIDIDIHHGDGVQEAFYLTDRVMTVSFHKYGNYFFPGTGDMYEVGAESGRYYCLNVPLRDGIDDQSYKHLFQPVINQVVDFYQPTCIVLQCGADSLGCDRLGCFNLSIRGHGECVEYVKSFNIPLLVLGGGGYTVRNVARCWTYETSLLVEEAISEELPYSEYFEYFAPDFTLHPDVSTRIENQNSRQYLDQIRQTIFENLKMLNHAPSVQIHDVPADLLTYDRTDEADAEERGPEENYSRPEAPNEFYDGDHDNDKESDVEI
A short description of data set [12]: Apparent permeability across human Caco2 cells. As to conditions: Caco-2. Type of data set: ADME, cell-based. Background: Caco-2 monolayers are a common model of the intestinal barrier.
A short description of data set [13]: Metabolic stability in ICR mouse liver microsomes assessed as compound remaining at 1 uM after 60 mins in presence of NADPH. The settings on record: read-out: Stability. Type of data set: ADME, Microsome. Background: Liver microsomes are a subcellular fraction often used to study metabolism.
The nature of data set [14]: Tmax in BALB/c mouse at 20 mg/kg, po. More on the design: dose 20 mg/kg, route oral. The settings on record: in vivo. Type of data set: ADME, organism-based.
Data set [15] is described as follows: Metabolic stability in ICR mouse liver microsomes assessed as compound remaining at 1 uM after 60 mins in absence of NADPH. The settings on record: read-out: Stability. Type of data set: ADME, Microsome.
Data set [16] is described as follows: Inhibition of HDAC assessed as increase of histone H4 acetylation.
Data set [17] has as its system HCT-116. Put plainly: Antitumor activity against human HCT116 cells xenografted in nude mouse assessed as inhibition of tumor growth at 30 mg/kg, ip for 20 days relative to control. More on the design: scale not given: the % may be the effect or the level left. Type of data set: functional. As to conditions: route intraperitoneal. Background: A xenograft is tissue or cells of one species grown in another, often human tumour cells in immunodeficient mice.

Data set [18] in a line: Inhibition of HDAC assessed as increase of histone H3 acetylation.
The nature of data set [19]: AUC (0 to 5 hrs) in BALB/c mouse at 20 mg/kg, po. Type of data set: ADME, organism-based. The arrangement: time < 4 hr, dose 20 mg/kg, route oral. The settings on record: plasma.
Data set [20] is described as follows: Metabolic stability in ICR mouse liver microsomes assessed as compound remaining at 1 uM after 60 mins in presence of buffer. Type of data set: ADME, Microsome. The settings on record: read-out: Stability.
The nature of data set [21]: Half life in BALB/c mouse at 20 mg/kg, po. Type of data set: ADME, organism-based. The arrangement: dose 20 mg/kg, route oral. As to conditions: in vivo.
Data set [22] has as its system Mus musculus. Description: Toxicity in human HCT116 cells xenografted nude mouse assessed as change in body weight at 30 mg/kg, ip for 20 days. Type of data set: organism-based, HCT-116. More on the design: dose 30 mg/kg, route intraperitoneal. As to conditions: in vivo, 480 h.
Data set [23] has as its target T1, Protein deacetylase HDAC6 (Homo sapiens, UniProt Q9UBN7).
T1 sequence (Q9UBN7 whole entry): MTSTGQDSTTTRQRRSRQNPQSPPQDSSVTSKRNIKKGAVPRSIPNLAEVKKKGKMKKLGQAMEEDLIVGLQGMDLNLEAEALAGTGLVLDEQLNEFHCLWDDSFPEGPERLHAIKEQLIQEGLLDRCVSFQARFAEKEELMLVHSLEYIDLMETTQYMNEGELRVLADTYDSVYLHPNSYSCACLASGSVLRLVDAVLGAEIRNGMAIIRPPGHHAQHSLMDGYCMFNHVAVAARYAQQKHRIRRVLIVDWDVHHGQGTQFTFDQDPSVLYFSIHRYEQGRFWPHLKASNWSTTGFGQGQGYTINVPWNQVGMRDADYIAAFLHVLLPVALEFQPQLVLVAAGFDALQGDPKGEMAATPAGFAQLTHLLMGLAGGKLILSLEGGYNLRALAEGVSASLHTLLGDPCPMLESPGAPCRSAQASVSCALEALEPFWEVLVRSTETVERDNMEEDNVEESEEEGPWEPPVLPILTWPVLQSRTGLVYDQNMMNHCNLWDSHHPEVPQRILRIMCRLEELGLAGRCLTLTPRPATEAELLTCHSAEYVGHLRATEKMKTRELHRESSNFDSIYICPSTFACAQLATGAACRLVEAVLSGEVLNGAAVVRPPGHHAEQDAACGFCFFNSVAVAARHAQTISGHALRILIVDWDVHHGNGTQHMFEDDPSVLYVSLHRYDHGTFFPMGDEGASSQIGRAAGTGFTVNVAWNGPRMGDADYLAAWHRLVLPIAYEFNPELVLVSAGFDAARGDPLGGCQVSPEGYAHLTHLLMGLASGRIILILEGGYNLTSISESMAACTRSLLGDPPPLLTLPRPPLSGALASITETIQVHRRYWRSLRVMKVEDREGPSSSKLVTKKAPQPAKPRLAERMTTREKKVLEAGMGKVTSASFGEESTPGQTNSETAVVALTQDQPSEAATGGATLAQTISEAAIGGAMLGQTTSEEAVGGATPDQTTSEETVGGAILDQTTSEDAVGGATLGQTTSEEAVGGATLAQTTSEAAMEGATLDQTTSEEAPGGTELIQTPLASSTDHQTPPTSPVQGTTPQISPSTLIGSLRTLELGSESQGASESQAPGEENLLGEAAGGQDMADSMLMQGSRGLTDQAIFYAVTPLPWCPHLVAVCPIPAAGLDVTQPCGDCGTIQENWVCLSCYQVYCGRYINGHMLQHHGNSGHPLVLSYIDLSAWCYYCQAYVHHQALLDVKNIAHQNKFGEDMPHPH

The target of data set [24] is T2, Histone deacetylase 8 (Homo sapiens, UniProt Q9BY41).
T2 sequence (Q9BY41 whole entry): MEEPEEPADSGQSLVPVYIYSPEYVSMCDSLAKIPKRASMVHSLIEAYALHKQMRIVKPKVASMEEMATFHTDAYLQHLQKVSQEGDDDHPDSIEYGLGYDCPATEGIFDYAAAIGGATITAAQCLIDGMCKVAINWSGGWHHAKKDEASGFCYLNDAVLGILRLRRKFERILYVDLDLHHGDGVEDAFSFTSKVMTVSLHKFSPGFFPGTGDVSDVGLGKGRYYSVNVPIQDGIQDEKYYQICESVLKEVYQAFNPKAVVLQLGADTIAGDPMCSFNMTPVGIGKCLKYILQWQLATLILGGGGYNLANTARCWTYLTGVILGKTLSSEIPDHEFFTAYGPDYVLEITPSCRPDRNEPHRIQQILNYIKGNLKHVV
Description: Inhibition of HDAC8 by fluorescence assay.

A short description of data set [25]: Half life in BALB/c mouse at 5 mg/kg, iv. Type of data set: ADME, organism-based. More on the design: dose 5 mg/kg, route intravenous. The settings on record: in vivo.
In data set [26] the target is Histone deacetylase 2 (Homo sapiens, UniProt Q92769). Put plainly: Inhibition of HDAC2 by fluorescence assay.
Chain of Histone deacetylase 2 (Q92769 whole entry): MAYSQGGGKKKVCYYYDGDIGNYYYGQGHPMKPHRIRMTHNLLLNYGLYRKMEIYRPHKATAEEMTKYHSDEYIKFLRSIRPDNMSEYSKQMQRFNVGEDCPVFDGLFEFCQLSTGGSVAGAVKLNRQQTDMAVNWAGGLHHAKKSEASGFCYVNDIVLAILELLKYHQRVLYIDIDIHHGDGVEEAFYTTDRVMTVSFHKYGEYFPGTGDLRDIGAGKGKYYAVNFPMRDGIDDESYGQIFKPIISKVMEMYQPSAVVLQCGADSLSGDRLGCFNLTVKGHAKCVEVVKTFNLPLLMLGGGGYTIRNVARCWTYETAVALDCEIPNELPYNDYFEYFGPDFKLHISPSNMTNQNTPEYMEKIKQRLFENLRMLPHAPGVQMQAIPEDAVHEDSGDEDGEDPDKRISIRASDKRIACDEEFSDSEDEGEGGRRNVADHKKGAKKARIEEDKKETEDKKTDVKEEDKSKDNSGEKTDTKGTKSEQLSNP
Data set [27] in a line: Volume of distribution at steady state in BALB/c mouse at 5 mg/kg, iv. Type of data set: ADME, organism-based. The arrangement: dose 5 mg/kg, route intravenous. As to conditions: in vivo, read-out: Vdss.
In data set [28] the test system is HCT-116. Description: Antitumor activity against human HCT116 cells xenografted in nude mouse assessed as reduction of tumor volume at 30 mg/kg, ip for 20 days (reference value: 369.8 mm'3). Type of data set: functional. As to conditions: route intraperitoneal.
Data set [29] has as its system NUGC-3. Description: Cytotoxicity against human NUGC3 cells. Type of data set: functional.
Data set [30] in a line: Clearance in BALB/c mouse at 5 mg/kg, iv. Type of data set: ADME, organism-based. More on the design: dose 5 mg/kg, route intravenous. As to conditions: in vivo.
Data set [31] has as its target Histone deacetylase 1 (Homo sapiens, UniProt Q13547). Description: Inhibition of HDAC1 by fluorescence assay.

Chain of Histone deacetylase 1 (Q13547 whole entry): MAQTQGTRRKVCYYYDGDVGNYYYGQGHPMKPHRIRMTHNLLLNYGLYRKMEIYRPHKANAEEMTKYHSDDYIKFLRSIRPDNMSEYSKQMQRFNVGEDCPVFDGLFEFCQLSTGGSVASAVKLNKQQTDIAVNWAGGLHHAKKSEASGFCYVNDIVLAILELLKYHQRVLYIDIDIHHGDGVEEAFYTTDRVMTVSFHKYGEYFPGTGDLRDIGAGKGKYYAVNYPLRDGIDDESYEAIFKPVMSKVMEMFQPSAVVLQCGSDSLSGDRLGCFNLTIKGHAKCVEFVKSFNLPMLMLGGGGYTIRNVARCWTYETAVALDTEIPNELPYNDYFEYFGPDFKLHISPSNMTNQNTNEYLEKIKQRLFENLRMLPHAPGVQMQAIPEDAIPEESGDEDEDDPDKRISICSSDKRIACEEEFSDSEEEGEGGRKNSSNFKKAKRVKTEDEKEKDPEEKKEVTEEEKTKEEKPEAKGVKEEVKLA

Turning to `O=C(CCC1=CCCN(CCc2ccccc2)C1=O)NO`, the GI50 amounted to 1.62 µM in data set [1]; 5.84 µM in data set [2]; 30 µM in data set [3]; 9.84 µM in data set [5]; 8.16 µM in [6]; 7.76 µM in data set [7]. In addition, in data set [4], the half-inhibitory concentration (IC50) came out at 0.35 µM.
In the case of `O=C(CCC1=CCCN(CCc2cccc3ccccc23)C1=O)NO`, the IC50 in data set [4] was found to be 0.32 µM.
For the compound `O=C(CCC1=CCN(Cc2ccc3ccccc3c2)C1=O)NO`, the GI50 was 1.22 µM in [1]; 7.98 µM in data set [2]; 5.19 µM in data set [3]; 4.88 µM in data set [5]; 3.54 µM in data set [6]; 1.39 µM in [7]. Moreover, in data set [4], the half-inhibitory concentration (IC50) was 0.15 µM.
With `O=C(CCC1=CCN(CCCc2ccc3ccccc3c2)C1=O)NO`, the GI50 in data set [1] was 0.65 µM; in [2], 0.82 µM; in [3], 0.61 µM; in data set [5], 1.09 µM; in [6], 0.78 µM; in [29], 0.61 µM. In data set [7], this compound displayed a GI50 of 0.65 µM. This compound also yielded a Cmax in data set [8] of 813 ng/mL. The same compound yielded a total exposure AUC(0-inf) in [9] of 890 ng·h/mL. Moreover, in [10], the bioavailability is 8.7%. Besides, the IC50 in data set [11] turned out to be 80.1 µM; in [4] it was 0.01 µM; in data set [23] it was 0.8 µM; in [24] it was 120 µM; in data set [26], 16.4 µM; in data set [31], 25.6 µM. Further, in data set [12], the Papp was 16.3 ×10⁻⁶ cm/s. The remaining at 1 h, 1 µM came out at 43.1% in [13], 71.1% in data set [15] and 97.2% in data set [20]. In addition, in data set [14], the Tmax is 15 min. Besides, the inhibition result in data set [16] and in [18] was “Dose-dependent effect” in each case. Further, the Activity in [17] is 34.4%; in data set [22] it was “Non-toxic”; in data set [28], 242.2 mm3. In data set [19], this compound showed an AUC(0-t) at 4 h of 309 ng·h/mL. The half-life in [21] was 38.4 min; in data set [25] it was 9 min. Moreover, in data set [27], the Vd turned out to be 0.85 L/kg. The same compound gave a clearance in data set [30] of 93.7 mL/min/kg.
`O=C(CCC1=CCN(CCc2ccc3ccccc3c2)C1=O)NO`: the GI50 in [1] worked out at 0.59 µM; in data set [2], 0.61 µM; in data set [3], 0.5 µM; in data set [5], 0.34 µM; in data set [6], 0.84 µM; in [29], 0.8 µM. In addition, the concentration for 50% growth inhibition (GI50) in data set [7] was determined as 0.63 µM. The remaining at 1 h, 1 µM in [13] came out at 29.7%; in data set [15], 46.6%. Further, in [4], the IC50 turned out to be 0.05 µM.
`O=C(CCC1=CCCN(Cc2ccccc2)C1=O)NO`: the GI50 is 4.26 µM in data set [1]; 30 µM in data set [2]; 30 µM in data set [3]; 30 µM in [5]; 30 µM in [6]; 30 µM in data set [7]. In addition, it took 0.67 µM to reach half-maximal inhibition in [4] (IC50).
Turning to `O=C(CCC1=CCCN(Cc2ccc3ccccc3c2)C1=O)NO`, the GI50 came to 4.07 µM in [1]; 30 µM in [2]; 30 µM in data set [3]; 30 µM in [5]; 6.82 µM in data set [6]; 6.09 µM in data set [7]. The midpoint of inhibition in data set [4], the IC50, lay at 30 µM.
